# Assay: recombinant UMI read abundance after kanamycin selection (control-corrected) (log10(CPM+1)); higher = more efficient recombination; extreme values may be limits of the assay; sequences stand for … in AGTGCAGAGAAAATCGGCCAGTTTTCTCTGCCTGCAGTCCGCATGCCGTGGGACCCCTTGGGTTCTAACCTGTTGCCTAGATTTATGCAGCGGACTGCCTTTCTCCCAAAGTGATAAACCGG…AGGTTGGTTTCACT; site = the 11-nt donor
# In short: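 Pooled Escherichia coli screen of donor and donor-binding-loop pairs for the IS621 bridge recombinase. Each pair sits with a 12-nt UMI on a plasmid carrying a promoterless kanamycin gene. The library was co-electroporated with a target plasmid encoding a fixed target and T7-inducible recombinase, then plated with IPTG (0.07 mM) plus kanamycin, or unselected, each in two replicates. Recombinant UMIs were PCR-amplified across the donor–target junction and sequenced. Counts became CPM, averaged over replicates, scaled by control-derived factors and reported as log10(CPM+1).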
row,Sequence,recombinant UMI read abundance (log10)
1,GTGTATGCATGGACCGGTTTTCCCGGTAATCCGTATTTGGT (site GTGAATGCTAC),0.483
2,GTGTATGCATGGACCGGTTTTCCCGGTAATCCGTATTTGGT (site GTGCATGCTAC),1.24
3,GTGTATGCATGGACCGGTTTTCCCGGTAATCCGTATTTGGT (site GTGGATGCTAC),0
4,GTGTATGCATGGACCGGTTTTCCCGGTAATCCGTATTTGGT (site GTGTATGCTAC),2
5,GTGTCATCATGGACCGGTTTTCCCGGTAATCCGTATTTGCA (site GTGTCATCTTG),0.804
6,GTGTTGCCATGGACCGGTTTTCCCGGTAATCCGTATTTGGC (site GTGTTGCCTGC),0
7,GTGTTTACATGGACCGGTTTTCCCGGTAATCCGTATTTGCG (site GTGTTTACTCG),1.66
8,GTTAACTCATGGACCGGTTTTCCCGGTAATCCGTATTTGAA (site GTTAACTCTTT),1.85
9,GTTAAGGCATGGACCGGTTTTCCCGGTAATCCGTATTTGAG (site GTTAAGGCTCT),1.41
10,GTTACAACATGGACCGGTTTTCCCGGTAATCCGTATTTGGC (site GTTAAAACTGC),0.0108
11,GTTACAACATGGACCGGTTTTCCCGGTAATCCGTATTTGGC (site GTTACAACTGC),0
12,GTTACAACATGGACCGGTTTTCCCGGTAATCCGTATTTGGC (site GTTAGAACTGC),0
13,GTTACAACATGGACCGGTTTTCCCGGTAATCCGTATTTGGC (site GTTATAACTGC),0
14,GTTACGTCATGGACCGGTTTTCCCGGTAATCCGTATTTGTA (site GTTACGTCTTA),1.22
15,GTTACTGCATGGACCGGTTTTCCCGGTAATCCGTATTTGCC (site GATACTGCTGG),0
16,GTTACTGCATGGACCGGTTTTCCCGGTAATCCGTATTTGCC (site GCTACTGCTGG),0
17,GTTACTGCATGGACCGGTTTTCCCGGTAATCCGTATTTGCC (site GGTACTGCTGG),0.914
18,GTTACTGCATGGACCGGTTTTCCCGGTAATCCGTATTTGCC (site GTTACTGCTGG),1.83
19,GTTAGCTCATGGACCGGTTTTCCCGGTAATCCGTATTTGTG (site GTTAGCTCTCA),0.415
20,GTTAGTACATGGACCGGTTTTCCCGGTAATCCGTATTTGGC (site GTTAGAACTGC),0
21,GTTAGTACATGGACCGGTTTTCCCGGTAATCCGTATTTGGC (site GTTAGCACTGC),0
22,GTTAGTACATGGACCGGTTTTCCCGGTAATCCGTATTTGGC (site GTTAGGACTGC),0
23,GTTAGTACATGGACCGGTTTTCCCGGTAATCCGTATTTGGC (site GTTAGTACTGC),0.861
24,GTTATACCATGGACCGGTTTTCCCGGTAATCCGTATTTGCT (site GTTATACCTAG),0
25,GTTATAGCATGGACCGGTTTTCCCGGTAATCCGTATTTGTC (site GTTATAGCTGA),2.53

row,Sequence,recombinant UMI read abundance (log10)
1,GTTCCAACATGGACCGGTTTTCCCGGTAATCCGTATTTGTA (site GATCCAACTTA),0.0199
2,GTTCCAACATGGACCGGTTTTCCCGGTAATCCGTATTTGTA (site GCTCCAACTTA),0.287
3,GTTCCAACATGGACCGGTTTTCCCGGTAATCCGTATTTGTA (site GGTCCAACTTA),0.0991
4,GTTCCAACATGGACCGGTTTTCCCGGTAATCCGTATTTGTA (site GTTCCAACTTA),0.437
5,GTTCCTACATGGACCGGTTTTCCCGGTAATCCGTATTTGCT (site GTTCCTACTAG),0.774
6,GTTCGAACATGGACCGGTTTTCCCGGTAATCCGTATTTGGC (site GTTAGAACTGC),0
7,GTTCGAACATGGACCGGTTTTCCCGGTAATCCGTATTTGGC (site GTTCGAACTGC),0.869
8,GTTCGAACATGGACCGGTTTTCCCGGTAATCCGTATTTGGC (site GTTGGAACTGC),0
9,GTTCGAACATGGACCGGTTTTCCCGGTAATCCGTATTTGGC (site GTTTGAACTGC),0
10,GTTCGACCATGGACCGGTTTTCCCGGTAATCCGTATTTGTG (site GTTCGACCTCA),0.0309
11,GTTCGAGCATGGACCGGTTTTCCCGGTAATCCGTATTTGCA (site ATTCGAGCTTG),1.31
12,GTTCGAGCATGGACCGGTTTTCCCGGTAATCCGTATTTGCA (site CTTCGAGCTTG),0.898
13,GTTCGAGCATGGACCGGTTTTCCCGGTAATCCGTATTTGCA (site GATCGAGCTTG),0.258
14,GTTCGAGCATGGACCGGTTTTCCCGGTAATCCGTATTTGCA (site GCTCGAGCTTG),1.25
15,GTTCGAGCATGGACCGGTTTTCCCGGTAATCCGTATTTGCA (site GGTCGAGCTTG),0.00484
16,GTTCGAGCATGGACCGGTTTTCCCGGTAATCCGTATTTGCA (site GTACGAGCTTG),1.97
17,GTTCGAGCATGGACCGGTTTTCCCGGTAATCCGTATTTGCA (site GTCCGAGCTTG),1.29
18,GTTCGAGCATGGACCGGTTTTCCCGGTAATCCGTATTTGCA (site GTGCGAGCTTG),0.215
19,GTTCGAGCATGGACCGGTTTTCCCGGTAATCCGTATTTGCA (site GTTAGAGCTTG),0.651
20,GTTCGAGCATGGACCGGTTTTCCCGGTAATCCGTATTTGCA (site GTTCAAGCTTG),1.8
21,GTTCGAGCATGGACCGGTTTTCCCGGTAATCCGTATTTGCA (site GTTCCAGCTTG),0.541
22,GTTCGAGCATGGACCGGTTTTCCCGGTAATCCGTATTTGCA (site GTTCGAACTTG),0.806
23,GTTCGAGCATGGACCGGTTTTCCCGGTAATCCGTATTTGCA (site GTTCGACCTTG),0.0101
24,GTTCGAGCATGGACCGGTTTTCCCGGTAATCCGTATTTGCA (site GTTCGAGCTAG),0
25,GTTCGAGCATGGACCGGTTTTCCCGGTAATCCGTATTTGCA (site GTTCGAGCTCG),0.461

row,Sequence,recombinant UMI read abundance (log10)
1,GTTCGAGCATGGACCGGTTTTCCCGGTAATCCGTATTTGCA (site GTTCGAGCTGG),0.789
2,GTTCGAGCATGGACCGGTTTTCCCGGTAATCCGTATTTGCA (site GTTCGAGCTTA),1.19
3,GTTCGAGCATGGACCGGTTTTCCCGGTAATCCGTATTTGCA (site GTTCGAGCTTC),0.0558
4,GTTCGAGCATGGACCGGTTTTCCCGGTAATCCGTATTTGCA (site GTTCGAGCTTG),2.44
5,GTTCGAGCATGGACCGGTTTTCCCGGTAATCCGTATTTGCA (site GTTCGAGCTTT),0.391
6,GTTCGAGCATGGACCGGTTTTCCCGGTAATCCGTATTTGCA (site GTTCGATCTTG),1.09
7,GTTCGAGCATGGACCGGTTTTCCCGGTAATCCGTATTTGCA (site GTTCGCGCTTG),0.00631
8,GTTCGAGCATGGACCGGTTTTCCCGGTAATCCGTATTTGCA (site GTTCGGGCTTG),1
9,GTTCGAGCATGGACCGGTTTTCCCGGTAATCCGTATTTGCA (site GTTCGTGCTTG),0.477
10,GTTCGAGCATGGACCGGTTTTCCCGGTAATCCGTATTTGCA (site GTTCTAGCTTG),0.494
11,GTTCGAGCATGGACCGGTTTTCCCGGTAATCCGTATTTGCA (site GTTGGAGCTTG),0.345
12,GTTCGAGCATGGACCGGTTTTCCCGGTAATCCGTATTTGCA (site GTTTGAGCTTG),0.607
13,GTTCGAGCATGGACCGGTTTTCCCGGTAATCCGTATTTGCA (site TTTCGAGCTTG),0.829
14,GTTCGAGCATGGACCGGTTTTCCCGGTAATCCGTATTTGCC (site GTTCGAGCTAG),0.379
15,GTTCGAGCATGGACCGGTTTTCCCGGTAATCCGTATTTGCC (site GTTCGAGCTCG),0.00775
16,GTTCGAGCATGGACCGGTTTTCCCGGTAATCCGTATTTGCC (site GTTCGAGCTGG),1.42
17,GTTCGAGCATGGACCGGTTTTCCCGGTAATCCGTATTTGCC (site GTTCGAGCTTG),0.317
18,GTTCGAGCATGGACCGGTTTTCCCGGTAATCCGTATTTGGG (site GTTCGAGCTCC),0.00765
19,GTTCGGCCATGGACCGGTTTTCCCGGTAATCCGTATTTGGT (site GTTCGGCCTAC),0.00718
20,GTTCTATCATGGACCGGTTTTCCCGGTAATCCGTATTTGTG (site GTTCTATCTCA),1.02
21,GTTCTCACATGGACCGGTTTTCCCGGTAATCCGTATTTGGT (site GTTCTCACTAC),0.234
22,GTTGCGGCATGGACCGGTTTTCCCGGTAATCCGTATTTGCT (site ATTGCGGCTAG),1.03
23,GTTGCGGCATGGACCGGTTTTCCCGGTAATCCGTATTTGCT (site CTTGCGGCTAG),0.745
24,GTTGCGGCATGGACCGGTTTTCCCGGTAATCCGTATTTGCT (site GTTGCGGCTAG),1.49
25,GTTGCGGCATGGACCGGTTTTCCCGGTAATCCGTATTTGCT (site TTTGCGGCTAG),0.731
